The values that follow come from patent publication US8722849B2, “Polypeptides” (Novo Nordisk A/S, priority 2011, dated 2014).

A short description of series [1]: Assay (III) ThT fibrillation assay for physical stability. The series is classed as physicochemical. The following applies: ThT fibrillation assay. The source says:
ASSAY (III)—ThT Fibrillation Assays for the Assessment of Physical Stability of Protein formulations Low physical stability of a polypeptide may lead to amyloid fibril formation, which is observed as well-ordered, thread-like macromolecular structures in the sample eventually resulting in gel formation. This has traditionally been measured by visual inspection of the sample. However, that kind of measurement is very subjective and depending on the observer. Therefore, the application of a small molecule indicator probe is much more advantageous. Thioflavin T (ThT) is such a probe and has a distinct fluorescence signature when binding to fibrils [Naiki et al. (1989) Anal. Biochem. 177, 244-249; LeVine (1999) Methods. Enzymol. […], 274-284]. The time course for fibril formation can be described by a sigmoidal curve with the following expression [Nielsen et al. (2001) Biochemistry 40, 6036-6046]: [formula] Here, F is the ThT fluorescence at the time t. The constant t0 is the time needed to reach 50% of maximum fluorescence. […] Few of those intermediates nucleate to form a template onto which further intermediates may assembly and the fibrillation proceeds. The lag-time corresponds to the interval in which the critical mass of nucleus is built up and the apparent rate constant is the rate with which the fibril itself is formed. Sample Preparation Samples were prepared freshly before each assay. Each sample composition is described in each example. The pH of the sample was adjusted to the desired value using appropriate amounts of concentrated NaOH and HClO4 or HCl. Thioflavin T was added to the samples from a stock solution in H2O to a final concentration of 1 μM. Sample aliquots of 200 μl were placed in a 96 well microtiter plate (Packard OptiPlate™-96, white polystyrene). Usually, four or eight replica of each sample (corresponding to one test condition) were placed in one column of wells. The plate was sealed with Scotch Pad (Qiagen). Incubation and Fluorescence Measurement Incubation at given temperature, shaking and measurement of the ThT fluorescence emission were done in a Fluoroskan Ascent FL fluorescence platereader or Varioskan platereader (Thermo Labsystems). The temperature was adjusted to 37° C. The orbital shaking was adjusted to 960 rpm with an amplitude of 1 mm in all the presented data. Fluorescence measurement was done using excitation through a 444 nm filter and measurement of emission through a 485 nm filter. Each run was initiated by incubating the plate at the assay temperature for 10 min. The plate was measured every 20 minutes for a desired period of time. Between each measurement, the plate was shaken and heated as described. Data Handling The measurement points were saved in Microsoft Excel format for further processing and curve drawing and fitting was performed using GraphPad Prism. The background emission from ThT in the absence of fibrils was negligible. The data points are typically a mean of four or eight samples and shown with standard deviation error bars. Only data obtained in the same experiment (i.e. samples on the same plate) are presented in the same graph ensuring a relative measure of fibrillation between experiments. The data set may be fitted to Eq. (1). However, since full sigmodial curves in this case are not always achieved during the measurement time, the degree of fibrillation is expressed as ThT fluorescence tabulated as the mean of the samples and shown with the standard deviation at various time points. Measurement of Initial and Final Concentrations The polypeptide concentration in each of the tested formulations were measured both before application in the ThT fibrillation assay (“Initial”) and after completion of the ThT fibrillation (“After ThT assay”). Concentrations were determined by reverse HPLC methods using a pramlintide standard as a reference. Before measurement after completion 150 μl was collected from each of the replica and transferred to an Eppendorf tube. […]

For series [2], the target named is T1, human amylin receptor (amylin 3(a) receptor: human calcitonin receptor + RAMP-3) (Homo sapiens, UniProt O60896+P30988).
T1 construct: expressed in transfected cells; host or cells: BHK570
T1 sequence (P30988 25-474): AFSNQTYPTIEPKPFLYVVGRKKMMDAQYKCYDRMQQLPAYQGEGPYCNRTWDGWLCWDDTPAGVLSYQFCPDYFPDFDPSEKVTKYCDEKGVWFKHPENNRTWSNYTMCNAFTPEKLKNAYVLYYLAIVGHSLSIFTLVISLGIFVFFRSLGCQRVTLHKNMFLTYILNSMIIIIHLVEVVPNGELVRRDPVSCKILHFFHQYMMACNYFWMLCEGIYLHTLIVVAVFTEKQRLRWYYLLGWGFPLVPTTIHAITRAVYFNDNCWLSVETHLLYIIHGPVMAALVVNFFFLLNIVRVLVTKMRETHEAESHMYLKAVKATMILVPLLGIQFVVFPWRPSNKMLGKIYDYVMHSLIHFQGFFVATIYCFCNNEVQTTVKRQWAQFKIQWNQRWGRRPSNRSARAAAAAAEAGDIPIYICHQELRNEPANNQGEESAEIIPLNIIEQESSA
T1 sequence (O60896 24-148 partner): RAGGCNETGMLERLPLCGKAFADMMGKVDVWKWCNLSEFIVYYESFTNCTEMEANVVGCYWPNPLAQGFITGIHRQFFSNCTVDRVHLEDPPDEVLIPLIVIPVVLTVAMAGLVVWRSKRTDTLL
The series can be described thus: Assay (II)a functional CRE-luciferase assay, human amylin receptor. The series is classed as cell-based.

Series [3] deals with T2, human calcitonin receptor (Homo sapiens, UniProt P30988).
T2 construct: expressed in transfected cells; host or cells: BHK570
T2 sequence (P30988 25-474): T1 sequence (P30988 25-474)
The series can be described thus: Assay (II)a functional CRE-luciferase assay, human calcitonin receptor. The series is classed as cell-based. The following applies: Table 7; human calcitonin (CTa) receptor.

Series [4] is described as follows: Assay (IV) determination of solubility. The format is physicochemical. Put shortly:
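Solubility is measured across pH 3.0–8.0 by mixing a ~500 nmol/ml aqueous polypeptide stock 1:1 with 100 mM glycylglycine or bistrispropane buffers. Samples stand 18 hours at room temperature, then are centrifuged and the soluble concentration is determined by HPLC.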

Setting [5] is: bistrispropane buffer, pH 6, pH 6.0, read-out: Solubility pH 6.0.
Setting [6] is: bistrispropane buffer, pH 6.5, pH 6.5, read-out: Solubility pH 6.5.
[7] abbreviates: bistrispropane buffer, pH 7, pH 7.0, 18 hours at room temperature, Table 3, read-out: Solubility pH 7.0.
The mark [8] stands for this setting: bistrispropane buffer, pH 7, pH 7.0, read-out: Solubility pH 7.0.
The mark [9] stands for this setting: bistrispropane buffer, pH 7.5, pH 7.5, read-out: Solubility pH 7.5.
Setting [10] is: bistrispropane buffer, pH 8, pH 8.0, read-out: Solubility pH 8.0.
[11] abbreviates: glycylglycine buffer, pH 3, pH 3.0, read-out: Solubility pH 3.0.
Where [12] appears, read: glycylglycine buffer, pH 4, pH 4.0, read-out: Solubility pH 4.0.
Setting [13] is: glycylglycine buffer, pH 5, pH 5.0, read-out: Solubility pH 5.0.

Structures are written as SMILES. In brackets after ≈: the same amount, converted by molar mass. Read-outs that look alike come from different tables or passages of the source. Starred links: 1 amine or outer side, 2 acyl side, 3 side chain; linkers in the order of their positions; H or OH if unused. Positions of bridges follow the written chain, without caps; N, C: chain ends. Residues, ends and D or L forms follow the SMILES beside them. *: point of attachment. C20 diacid = O=C(O)CCCCCCCCCCCCCCCCCCC(=O)*; γGlu = O=C(O)[C@H](CCC(=O)[*:2])N[*:1] A value given as a limit tells only on which side of the number the result lay.

On to `CC[C@H](C)[C@H](NC(=O)[C@@H]1CCCN1C(=O)CNC(=O)[C@H](Cc1ccccc1)NC(=O)[C@H](CC(N)=O)NC(=O)[C@H](CC(N)=O)NC(=O)[C@H](CO)NC(=O)[C@H](CO)NC(=O)[C@H](Cc1c[nH]cn1)NC(=O)[C@H](CCCNC(=N)N)NC(=O)[C@H](CC(C)C)NC(=O)[C@H](Cc1ccccc1)NC(=O)[C@H](CCC(=O)O)NC(=O)[C@H](C)NC(=O)[C@H](CC(C)C)NC(=O)[C@H](CCCNC(=N)N)NC(=O)[C@H](CCC(N)=O)NC(=O)[C@@H](NC(=O)[C@H](C)NC(=O)[C@@H]1CSSC[C@H](NC(=O)[C@H](CCCNC(=N)N)NC(=O)[C@H](CCC(=O)O)NC(=O)CC[C@H](NC(=O)CCCCCCCCCCCCCCCCCCC(=O)O)C(=O)O)C(=O)N[C@@H](CC(N)=O)C(=O)N[C@@H]([C@@H](C)O)C(=O)N[C@@H](C)C(=O)N[C@@H]([C@@H](C)O)C(=O)N1)[C@@H](C)O)C(=O)N[C@@H](CC(C)C)C(=O)N1CCC[C@H]1C(=O)N1CCC[C@H]1C(=O)N[C@H](C(=O)N[C@@H](CC(N)=O)C(=O)N[C@H](C(=O)NCC(=O)N[C@@H](CO)C(=O)N[C@@H](CC(N)=O)C(=O)N[C@H](C(=O)N1CCC[C@H]1C(N)=O)[C@@H](C)O)C(C)C)[C@@H](C)O` [Example 156, N-alpha-[(S)-4-Carboxy-4-(19-carboxynonadecanoylamino)butyryl]-Glu-[Arg1,Glu14,Arg17,Pro37]-pramlintide] ({C20 diacid-γGlu}-ERCNTATCATQRLAEFLRHSSNNFGPILPPTNVGSNTP-NH2; disulfide 3-8 (inferred)), for which, in series [1], the “ThT pH 4.0 lag time” value is on record as over 45 h and the “ThT pH 4.0 lag time (h)” value was over 45 h. Moreover, the EC50 (usually the concentration needed to bring the measured effect to its halfway point) in series [2] (Table 5) turned out to be 0.066 nM. The EC50 in series [3] was determined as 0.168 nM.

`CC[C@H](C)[C@H](NC(=O)[C@@H]1CCCN1C(=O)CNC(=O)[C@H](Cc1ccccc1)NC(=O)[C@H](CC(N)=O)NC(=O)[C@H](CCC(N)=O)NC(=O)[C@H](CO)NC(=O)[C@H](CO)NC(=O)[C@H](Cc1c[nH]cn1)NC(=O)[C@H](CCCNC(=N)N)NC(=O)[C@H](CC(C)C)NC(=O)[C@H](Cc1ccccc1)NC(=O)[C@H](CCC(=O)O)NC(=O)[C@H](C)NC(=O)[C@H](CC(C)C)NC(=O)[C@H](CCCNC(=N)N)NC(=O)[C@H](CCC(N)=O)NC(=O)[C@@H](NC(=O)[C@H](C)NC(=O)[C@@H]1CSSC[C@H](NC(=O)[C@H](CCCNC(=N)N)NC(=O)[C@H](CCC(=O)O)NC(=O)[C@H](CCC(=O)O)NC(=O)CC[C@H](NC(=O)CCCCCCCCCCCCCCCCCCC(=O)O)C(=O)O)C(=O)N[C@@H](CC(N)=O)C(=O)N[C@@H]([C@@H](C)O)C(=O)N[C@@H](C)C(=O)N[C@@H]([C@@H](C)O)C(=O)N1)[C@@H](C)O)C(=O)N[C@@H](CC(C)C)C(=O)N1CCC[C@H]1C(=O)N1CCC[C@H]1C(=O)N[C@H](C(=O)N[C@@H](CC(N)=O)C(=O)N[C@H](C(=O)NCC(=O)N[C@@H](CO)C(=O)N[C@@H](CC(N)=O)C(=O)N[C@H](C(=O)N1CCC[C@H]1C(N)=O)[C@@H](C)O)C(C)C)[C@@H](C)O` [Example 157, N-alpha-[(S)-4-Carboxy-4-(19-carboxynonadecanoylamino)butyryl]-Glu-Glu-[Arg1,Glu14,Arg17,Gln21,Pro37]-pramlintide] ({C20 diacid-γGlu}-EERCNTATCATQRLAEFLRHSSQNFGPILPPTNVGSNTP-NH2; disulfide 4-9 (inferred); C-terminus assumed): the EC50 in series [2] (Table 2, BHK amylin 3(a)-receptor/CRE-luc cells) was 0.465 nM; in series [3], 0.547 nM. For the same compound, the solubility at 18 h in series [4] (setting [5]), in series [4] (setting [6]), in series [4] (setting [7]), in series [4] (setting [8]), in series [4] (setting [9]) and in series [4] (setting [10]) was over 200 µM each time. The solubility (as a rule, the dissolved amount per volume that the medium holds) at 18 h in series [4] (setting [11]) was over 200 µM; in series [4] (glycylglycine buffer, pH 4, pH 4.0, 18 hours at room temperature, Table 2, read-out: Solubility pH 4.0) it was over 200 µM; in series [4] (setting [12]), over 200 µM; in series [4] (setting [13]) it was over 200 µM.

Regarding `CC[C@H](C)[C@H](NC(=O)[C@@H]1CCCN1C(=O)CNC(=O)[C@H](Cc1ccccc1)NC(=O)[C@H](CO)NC(=O)[C@H](CO)NC(=O)[C@H](CO)NC(=O)[C@H](CO)NC(=O)[C@H](CCCNC(=N)N)NC(=O)[C@H](Cc1c[nH]cn1)NC(=O)[C@H](CC(C)C)NC(=O)[C@H](Cc1ccccc1)NC(=O)[C@H](CCC(=O)O)NC(=O)[C@H](C)NC(=O)[C@H](CC(C)C)NC(=O)[C@H](CCCNC(=N)N)NC(=O)[C@H](CCC(N)=O)NC(=O)[C@@H](NC(=O)[C@H](C)NC(=O)[C@@H]1CSSC[C@H](NC(=O)[C@H](Cc2c[nH]cn2)NC(=O)CC[C@H](NC(=O)CCCCCCCCCCCCCCCCCCC(=O)O)C(=O)O)C(=O)NCC(=O)N[C@@H]([C@@H](C)O)C(=O)N[C@@H](C)C(=O)N[C@@H]([C@@H](C)O)C(=O)N1)[C@@H](C)O)C(=O)N[C@@H](CC(C)C)C(=O)N1CCC[C@H]1C(=O)N1CCC[C@H]1C(=O)N[C@H](C(=O)N[C@@H](CCC(=O)O)C(=O)N[C@H](C(=O)NCC(=O)N[C@@H](CO)C(=O)N[C@@H](CCC(=O)O)C(=O)N[C@H](C(=O)N[C@@H](Cc1ccc(O)cc1)C(N)=O)[C@@H](C)O)C(C)C)[C@@H](C)O` [Example 16, N-alpha-[(S)-4-Carboxy-4-(19-carboxynonadecanoylamino)butyryl]-[His1,Gly3,Glu14,His17,Arg18,Ser21,Ser22,Glu31,Glu35]-pramlintide] ({C20 diacid-γGlu}-HCGTATCATQRLAEFLHRSSSSFGPILPPTEVGSETY-NH2; disulfide 2-7 (inferred)), the EC50 in series [2] (Table 3, BHK amylin 3(a)-receptor/CRE-luc cells) was determined as 0.313 nM; in series [3] it was 0.198 nM. The solubility at 18 h came to 34 µM (≈ 150 µg/mL) in series [4] (setting [5]); 12 µM (≈ 52.8 µg/mL) in series [4] (setting [6]); 104 µM (≈ 458 µg/mL) in series [4] (setting [7]); 104 µM (≈ 458 µg/mL) in series [4] (setting [8]); 122 µM (≈ 537 µg/mL) in series [4] (setting [9]); 129 µM (≈ 568 µg/mL) in series [4] (setting [10]). Besides, the results for the solubility at 18 h in series [4] (setting [11]), in series [4] (setting [12]) and in series [4] (setting [13]) were 179 µM (≈ 788 µg/mL), 80 µM (≈ 352 µg/mL) and 1 µM (≈ 4.4 µg/mL), respectively.
